In patent publication US20190364943A1, “NOVEL COMPOSITIONS FOR FLAVOR ENHANCEMENT” (International Flavors & Fragrances Inc., priority 2016, published 2019):

How the values were obtained:
salty taste = assay: Effect on salty taste, intensity scale 0 to 10 (panelists); type: in vivo, human; conditions: 20 ppm in sodium chloride in water (0.3% by weight); scale 0 to 10, control anchored as 5
Procedure: (§1) The effect of guanine and its nucleobase analog adenine on other basic tastes was examined and compared. The control solutions were prepared as follows:
(iii) A salty control solution of sodium chloride in water (0.3% by weight); and
(§2) Respective test solutions of adenine and guanine were prepared in different control solutions (2 or 20 ppm).
(§3) The taste perception of each sample was evaluated by a group of panelists using an intensity scale of 0 to 10, where 0=none, 5=moderate, 10=extremely strong. Panelists were instructed to anchor the intensity of the control solutions as 5 on the scale. The intensity scores were analyzed using one-way ANOVA with Post Hoc LSD multiple comparisons. Average intensity scores are reported in the following:
(§4) The effect of guanosine and its corresponding nucleotide, guanosine 5′-monophosphate (GMP), on additional basic tastes was examined and compared. The control solutions of sweet, bitter, salty and umami tastes were prepared as above in Example II. Respective test solutions of guanosine and GMP were prepared in different control solutions (2 or 20 ppm).

sour taste [1] = assay: Sour taste intensity score in citric acid base solution, scale 0 to 10 (panelists); type: in vivo, human; conditions: scale 0 to 10, base anchored as 5
Procedure: The effect of adenine and guanine on sour taste was examined and compared. Respective test sample solutions of adenine and guanine were prepared in the base solution (each of 5 and 100 ppb, respectively).
as §3, with “The sour taste perception” for “The taste perception”, “of the base solution as 5” for “of the control solutions as 5”, “the following: […]” for “the following:”

sweet taste = assay: Effect on sweet taste, intensity scale 0 to 10 (panelists); type: in vivo, human; conditions: 20 ppm in sucrose in water (2.5% by weight); scale 0 to 10, control anchored as 5
Procedure: as §1
(i) A sweet control solution of sucrose in water (2.5% by weight);
as §2, §3, §4

bitter taste = assay: Effect on bitter taste, intensity scale 0 to 10 (panelists); type: in vivo, human; conditions: 2 ppm in caffeine in water (0.05% by weight); scale 0 to 10, control anchored as 5
Procedure: as §1
(ii) A bitter control solution of caffeine in water (0.05% by weight);
as §2, §3, §4

umami taste = assay: Effect on umami taste, intensity scale 0 to 10 (panelists); type: in vivo, human; conditions: 20 ppm in MSG in water (0.05% by weight); scale 0 to 10, control anchored as 5
Procedure: as §1
(iv) An umami control solution of monosodium glutamate (MSG) in water (0.05% by weight).
as §2, §3, §4

[2] = Taste description of the compound alone in water; type: in vivo, human; conditions: 1 ppm
sour taste [3] = assay: Paired comparison of sour taste, test sample solution vs citric acid base solution (sensory panel); type: in vivo, human; conditions: for Sour taste enhancement, in words (table footnote): 5 and 100 ppb in base solution (citric acid 400 ppm); for Result (sour taste vs base solution): paired comparison
Procedure: The enhancement of sour taste by guanine and guanosine was subsequently examined. A base solution of citric acid (HOC(COOH)(CH2COOH)2) in water (400 ppm) was prepared and used in the following examples of the present invention. Test sample solutions of guanine and guanosine were prepared in the base solution (each of 5 and 100 ppb, respectively).
(§5) Sample pairs (a base solution and a test sample solution) were presented in a blind and pseudorandom order to a sensory panel. The enhancement of sour taste was recorded based on the percentage of the panelists who ranked the sample sourer. Binomial statistical analysis was used to compare the enhancement of sour taste for each sample pair. Significance was at 95% Confidence Interval (p<0.05). The test results are as follows:
The effect of botanical extract such as Chrysanthemum parthenium extract on sour taste was examined. A test sample solution of the extract in the base solution (15 ppm) was prepared.
Sensory evaluation was conducted using the paired comparison method. A base solution and a test sample solution, unidentifiable by using 3-digit codes, were presented in a blind and pseudorandom order to a sensory panel. The enhancement of sour taste was recorded based on the percentage of the panelists who ranked the sample sourer. The data were analyzed using binomial statistical analysis.

sour taste [4] = assay: Paired comparison of sour taste, GMP solution vs guanosine solution (sensory panel); type: in vivo, human
Procedure: The effect of guanosine and GMP on sour taste was examined and compared. Respective test sample solutions of GMP and guanosine were prepared in the base solution (each of 5 and 100 ppb, respectively).
as §5, with “(a GMP” for “(a base”, “a guanosine” for “a test sample”, “(p<0.05).” for “(p<0.05). The test results are as follows:”

[5] = pH level of sample solutions; type: physicochemical
sour taste [6] = assay: Paired comparison of sour taste against control solution of citric acid 450 ppm (sensory panel); type: in vivo, human
Procedure: A control sample solution of citric acid in water (450 ppm) and a test sample solution of guanosine in the base solution (1.25 ppm) were prepared. Sample pairs of (i) a base solution and a control sample solution; and (ii) a test sample solution and a control sample solution were each presented in a blind and pseudorandom order to a sensory panel. The enhancement of sour taste was recorded based on the percentage of the panelists who ranked the sample sourer.

[7] = 5 ppb in base solution (citric acid 400 ppm)
[8] = 100 ppb in base solution (citric acid 400 ppm)
[9] = 5 ppb in base solution (citric acid in water, 400 ppm)
[10] = 100 ppb in base solution (citric acid in water, 400 ppm)
[11] = guanosine 1.25 ppm in base solution (citric acid 400 ppm)

SMILES | Salty, average intensity score (salty taste) | Intensity Score (sour taste) (sour taste [1]; [7]) | Intensity Score (sour taste) (sour taste [1]; [8]) | Sweet, average intensity score (sweet taste) | Bitter, average intensity score (bitter taste) | Umami, average intensity score (umami taste) | Sour taste of the compound itself [2] | Taste description [2] | Sour taste enhancement, in words (table footnote) (sour taste [3]) | Result (sour taste vs base solution) (sour taste [3]; [9]) | Result (sour taste vs base solution) (sour taste [3]; [10]) | Result (which solution of the pair tasted sourer) (sour taste [4]; 5 ppb each in base solution (citric acid 400 ppm)) | Result (which solution of the pair tasted sourer) (sour taste [4]; 100 ppb each in base solution (citric acid 400 ppm)) | pH Level ([5]; test solution: citric acid 400 ppm + guanosine 1.25 ppm (base alone pH 3.19)) | Sour taste enhancement and pH, in words (sour taste [6]; [11]) | Sour taste enhancement compared with additional citric acid, in words (sour taste [6]; [11]) | Panelist Selection (%), ranked sourer (sour taste [6]; test (citric acid 400 ppm + guanosine 1.25 ppm) vs control (citric acid 450 ppm)) | pH Level ([5]; control solution: citric acid in water, 450 ppm) | Panelist Selection (%), ranked sourer (sour taste [6]; control (citric acid 450 ppm) vs base (citric acid 400 ppm)) | Panelist Selection (%), ranked sourer (sour taste [6]; control (citric acid 450 ppm) vs test (citric acid 400 ppm + guanosine 1.25 ppm))
Nc1ncnc2nc[nH]c12 [Adenine, adenine, reference compound] | 5.16 | 5.14 | 5.73 | 5.76 | 6.33 | 5.02 | – | – | – | – | – | – | – | – | – | – | – | – | – | –
Nc1nc2c(ncn2[C@@H]2O[C@H](COP(=O)(O)O)[C@@H](O)[C@H]2O)c(=O)[nH]1 [GMP, guanosine 5′-monophosphate, reference compound] | 5.34 | – | – | 5.42 | 6.50 | 9.60 | – | – | – | – | – | – | – | – | – | – | – | – | – | –
Nc1nc2nc[nH]c2c(=O)[nH]1 [Guanine, guanine] | 5.06 | 6.44 | 7.08 | 4.80 | 6.50 | 4.82 | Neither guanine nor guanosine possessed sour taste | somewhat astringent, mouth-drying and mouth-coating | *Guanine and guanosine provided intense and lasting sour taste enhancement. | Sourer than the base solution | Sourer than the base solution | – | – | – | – | – | – | – | – | –
Nc1nc2c(ncn2[C@@H]2O[C@H](CO)[C@@H](O)[C@H]2O)c(=O)[nH]1 [Guanosine, guanosine] | 5.22 | – | – | 5.52 | 7.00 | 4.98 | Neither guanine nor guanosine possessed sour taste | somewhat astringent, mouth-drying and slightly bitter | *Guanine and guanosine provided intense and lasting sour taste enhancement. | Sourer than the base solution | Sourer than the base solution | Guanosine solution tasted sourer | Guanosine solution tasted sourer | 3.20 | enhanced sour taste without decreasing the pH level | greater than that was achieved by 50 ppm citric acid | 100% | – | – | –
O=C(O)CC(O)(CC(=O)O)C(=O)O [citric acid, reference compound] | – | – | – | – | – | – | – | – | – | – | – | – | – | – | – | – | – | 3.17 | 100% | 0%
